# Values of other authors, collected in US6476002B1 (priority 1997, dated 2002).
# What was measured:
# [1] = test system: rats with collagen arthritis; settings: reported by Peacock et al. 1992
# [2] = test system: wound healing; settings: from literature / copending application
smiles,measurement,setting,value
CO[C@@H]1[C@H](OC(=O)NC(=O)CCl)CC[C@]2(CO2)[C@H]1[C@@]1(C)O[C@@H]1CC=C(C)C [AGM-1470],joint swelling in rats with collagen arthritis,[1],reduces joint swelling
same,effect on wound healing,[2],inhibits wound healing
